Patent US20260070917A1, “CYCLIN DEPENDENT KINASE DEGRADERS AND METHODS OF USE THEREOF” (Differentiated Therapeutics Inc, priority 2023, published 2026)

How the values were obtained:
Assay type in all cases: cell-based
CDK2 = biological target: T1, CDK2 (Homo sapiens, UniProt P24941); test: HiBit Assay Protocol for CDK2 (HIBIT protein quantification, degradation); conditions: HEK293-CDK2-Hibit cells, compound treatment for 6 hours; for DC50: ABS DC50
T1 construct: host or cells: HEK293-CDK2-Hibit
Summary of the method: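 HEK293 cells expressing HiBiT-tagged CDK2 were seeded overnight, then treated 6 h with a 3-fold, 10-point compound dilution series. CDK2 levels were read as luminescence after lytic HiBiT/LgBiT detection, normalised to DMSO-only and medium-only controls, and DC50 derived by curve fitting.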

CCNE1 = biological target: T2, CCNE1 (Homo sapiens, UniProt P24864); test: HiBit Assay Protocol for CCNE1 (HIBIT protein quantification, degradation); conditions: HEK293-CCNE1-Hibit cells, compound treatment for 6 hours
T2 construct: host or cells: HEK293-CCNE1-Hibit
Summary of the method: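 HEK293 cells expressing HiBiT-tagged CCNE1 were seeded overnight, then treated 6 h with a 3-fold, 10-point compound dilution series. HiBiT levels were read by lytic LgBiT luminescence and normalised to DMSO-only (high) and medium-only (low) controls. DC50 was derived by curve fitting.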

CDK9 = biological target: T3, CDK9 (Homo sapiens, UniProt P50750); test: HiBit Assay Protocol for CDK9 (HIBIT protein quantification, degradation); conditions: HEK293-CDK9-Hibit cells, compound treatment for 6 hours; for Dmax: 6 h, read-out: CDK9 HIBIT Protein Quantification Maximum
T3 construct: host or cells: HEK293-CDK9-Hibit
Summary of the method: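 HEK293 cells carrying HiBiT-tagged CDK9 treated 6 h with compounds in a 3-fold, 10-point dilution series. CDK9 level read by lytic Nano-Glo HiBiT/LgBiT luminescence and normalized to 0.1% DMSO (high) and medium-only (low) controls. DC50 from curve fitting.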

T3 sequence (P50750 whole entry): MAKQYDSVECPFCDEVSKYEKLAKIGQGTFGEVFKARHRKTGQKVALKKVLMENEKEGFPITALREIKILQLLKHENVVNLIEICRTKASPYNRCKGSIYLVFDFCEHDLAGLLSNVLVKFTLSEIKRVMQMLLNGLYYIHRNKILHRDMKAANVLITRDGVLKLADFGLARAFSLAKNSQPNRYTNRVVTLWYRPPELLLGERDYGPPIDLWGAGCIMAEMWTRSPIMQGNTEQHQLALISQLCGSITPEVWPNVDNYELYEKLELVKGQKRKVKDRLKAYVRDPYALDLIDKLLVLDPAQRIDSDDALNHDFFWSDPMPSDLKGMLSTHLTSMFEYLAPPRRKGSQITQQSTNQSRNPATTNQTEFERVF
T2 sequence (P24864 whole entry): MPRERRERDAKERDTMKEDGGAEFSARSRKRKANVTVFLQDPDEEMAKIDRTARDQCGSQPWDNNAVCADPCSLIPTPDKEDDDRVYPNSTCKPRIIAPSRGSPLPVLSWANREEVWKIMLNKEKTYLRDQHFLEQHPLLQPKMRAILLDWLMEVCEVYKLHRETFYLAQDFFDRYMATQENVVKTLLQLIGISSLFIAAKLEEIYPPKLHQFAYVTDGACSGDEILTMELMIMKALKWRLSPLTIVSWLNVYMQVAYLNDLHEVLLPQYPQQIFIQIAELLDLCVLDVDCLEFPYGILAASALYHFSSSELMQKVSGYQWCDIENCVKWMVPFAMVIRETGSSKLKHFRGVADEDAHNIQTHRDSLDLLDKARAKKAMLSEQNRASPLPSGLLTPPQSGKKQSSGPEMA

Structure (SMILES) | CDK2 HIBIT Protein Quantification Maximum (CDK2) [%] | CCNE1 HIBIT Protein Quantification Maximum (CCNE1) [%] | Dmax (CDK9) [%] | DC50 (CDK9; ABS DC50) [nM] | DC50 (CDK2) [nM]
Cc1ccc(CN2CCC(c3ccc4c(N5CCC(=O)NC5=O)nn(C)c4c3)CC2)cc1S(=O)(=O)N1CCC(Nc2ncc3c(n2)N([C@@H]2CCC[C@@H](O)C2)C(=O)C32CC2)CC1 [Compound 163, 1-[6-(1-{[3-(4-{7′-[(1R,3R)-3-Hydroxycyclohexyl]-6′-oxospiro [cyclopropane-1,5′-pyrrolo[2,3-d]pyrimidin]-2′-ylamino}piperidin-1-ylsulfonyl)-4-methylphenyl]methyl}piperidin-4-yl)-1-methylindazol-3-yl]-1,3-diazinane-2,4-dione] | 26 | 38 | 51 | 25.3 | 
Cn1nc(N2CCC(=O)NC2=O)c2ccc(C3CCN(Cc4ccnc(S(=O)(=O)N5CCC(Nc6ncc7c(n6)N([C@@H]6CCC[C@@H](O)C6)C(=O)C76CC6)CC5)c4)CC3)cc21 [Compound 165, 1-[6-(1-{[2-(4-{7′-[(1R,3R)-3-Hydroxycyclohexyl]-6′-oxospiro[cyclopropane-1,5′-pyrrolo[2,3-d]pyrimidin]-2′-ylamino}piperidin-1-ylsulfonyl)pyridin-4-yl]methyl}piperidin-4-yl)-1-methylindazol-3-yl]-1,3-diazinane-2,4-dione] | 78 | 44 | 13 |  | 10.1
Cn1nc(N2CCC(=O)NC2=O)c2ccc(C3CCN(Cc4cccc(S(=O)(=O)N5CCC(Nc6ncc7c(n6)N([C@@H]6CCC[C@@H](O)C6)C(=O)C76CC6)CC5)n4)CC3)cc21 [Compound 166, 1-[6-(1-{[6-(4-{7′-[(1R,3R)-3-Hydroxycyclohexyl]-6′-oxospiro[cyclopropane-1,5′-pyrrolo[2,3-d]pyrimidin]-2′-ylamino}piperidin-1-ylsulfonyl)pyridin-2-yl]methyl}piperidin-4-yl)-1-methylindazol-3-yl]-1,3-diazinane-2,4-dione] | 64 | 44 | 18 |  | 21.3

More lines, now with the values ahead:

CDK2 HIBIT Protein Quantification Maximum (CDK2) [%] | CCNE1 HIBIT Protein Quantification Maximum (CCNE1) [%] | Dmax (CDK9) [%] | DC50 (CDK9; ABS DC50) [nM] | DC50 (CDK2) [nM] | Structure (SMILES)
70 | 32 | 15 |  | 3.77 | Cc1cc(CN2CCC(c3ccc4c(N5CCC(=O)NC5=O)nn(C)c4c3)CC2)cc(S(=O)(=O)N2CCC(Nc3ncc4c(n3)N([C@@H]3CCC[C@@H](O)C3)C(=O)C43CC3)CC2)c1 [Compound 167, 1-[6-(1-{[3-(4-{7′-[(1R,3R)-3-Hydroxycyclohexyl]-6′-oxospiro[cyclopropane-1,5′-pyrrolo[2,3-d]pyrimidin]-2′-ylamino}piperidin-1-ylsulfonyl)-5-methylphenyl]methyl}piperidin-4-yl)-1-methylindazol-3-yl]-1,3-diazinane-2,4-dione]
71 | 40 | 26 |  | 2.91 | Cc1ccc(S(=O)(=O)N2CCC(Nc3ncc4c(n3)N([C@@H]3CCC[C@@H](O)C3)C(=O)C43CC3)CC2)cc1CN1CCC(c2ccc3c(N4CCC(=O)NC4=O)nn(C)c3c2)CC1 [Compound 168]
84 | 47 | 10 |  | 5.85 | Cn1nc(N2CCC(=O)NC2=O)c2ccc(C3CCN(Cc4cc(S(=O)(=O)N5CCC(Nc6ncc7c(n6)N([C@@H]6CCC[C@@H](O)C6)C(=O)C76CC6)CC5)ccc4F)CC3)cc21 [Compound 169, 1-[6-(1-{[2-Fluoro-5-(4-{7′-[(1R,3R)-3-hydroxycyclohexyl]-6′-oxospiro[cyclopropane-1,5′-pyrrolo[2,3-d]pyrimidin]-2′-ylamino}piperidin-1-ylsulfonyl)phenyl]methyl}piperidin-4-yl)-1-methylindazol-3-yl]-1,3-diazinane-2,4-dione]
